Patent US4338122A, “Biocidal 2-aryl-1,3-cyclopentanedione compounds and alkali metal and ammonium salts thereof” (Union Carbide Corporation, priority 1980, dated 1982)
Converted amounts (≈) assume the structure as drawn.

What was measured:
Tomato = assay: Post-emergent herbicidal test, tomato; assay type: in vivo; set-up: key: 1: no perceptible injury; 2: intermediate degrees of injury based upon the number and extent to which leaves were injured; 3: intermediate degrees of injury based upon the number and extent to which leaves were injured; 4: intermediate degrees of injury based upon the number and extent to which leaves were injured; 5: the plant was dead; details: 2500 parts per million, after ten days
Protocol: (§1) Suspensions of the test compounds were prepared by dissolving one gram of compound in 50 milliliters of acetone in which had been dissolved 0.1 gram (10 percent of the weight of compound) of an alkylphenoxyethoxyethanol surfactant, as an emulsifying or dispersing agent. The resulting solution was mixed into 160 milliliters of water to give roughly 200 milliliters of a suspension containing the compound in finely divided form. The thus prepared stock suspension contained 0.5 percent by weight of compound. The test concentrations employed in the tests described herein below were obtained by diluting the stock suspension with water. The test procedures were as follows:
(§2) Experiments were also conducted to determine the phytotoxicity of representative compositions with respect to healthy fresh plants. Solutions of the compounds were prepared as described above to provide a concentration of 2500 parts per million of the test compound. The test plants were sprayed in accordance with the procedure described above for the Mite Foliage Spray Test so as to deliver approximately 100 milliliters of test solutions to the leaves of each plant tested. The sprayed plants and controls were set aside for approximately one hour to allow the solutions to dry and were then placed in the greenhouse. After ten days the plants were visually inspected to determine the extent of foliage injury. A rating of 1 indicates no perceptible injury; 5 indicates the plant was dead and ratings of 2, 3 and 4 indicate intermediate degrees of injury based upon the number and extent to which leaves were injured.
(§3) Tests were conducted in accordance with the procedures given at pages 32 to 37 supra. The results are expressed in the same manner as used in Table I, except with respect to miticidal activity. For mite adult and mite egg comparison purposes, results are given in parts per million (ppm) required for a 50 percent kill of mites or eggs, respectively.

Crabgrass = assay: Preliminary herbicide seed germination test (pre-emergent), crabgrass; assay type: in vivo, Digitaria sanguinalis; set-up: key: 5: no seedling emerged; 4: few seedlings emerged and/or very severe stunting; 3: moderate reduction in stand and/or moderate stunting; 2: very slight reduction in stand and/or slight stunting; 1: no injury; seedlings appear no different with respect to stand or growth than untreated controls; details: ten to twelve days after application
Protocol: as §1
(§4) The following seeds were used in this test:
Crabgrass--Digitaria sanguinalis
(§5) Two soil-seed mixtures were prepared as follows:
(§6) Each of the above mixtures was rolled separately in 5 gallon containers for approximately one-half hour on ball mill to insure uniform mixing of seeds and soil. For each compound four 3-inch pots were filled with soil to within 11/2 inches of top of pots. To two of these pots were added 70 cc. of Mixture I. To the remaining 2 pots were added 70 cc. of Mixture II. The seed-soil mixture was tamped firmly, and the pots were removed to the green-house and watered lightly. About 2 hours after planting, 25 milliliters of the test formulation were added to one pot containing Mixture I and one pot containing Mixture II. An equal volume of a water solution containing acetone and an emulsifier in the same concentration as the herbicidal mixture but without the candidate herbicide was also added to each of the soil-seed mixtures. These pots are used as check or control units. The test compounds were formulated by diluting the stock suspension with water to obtain the desired concentration of the compound in parts per million of the final formulation. Each compound was tested at the same concentration. […] Ratings were made according to the following designations:
as §3

Bean = assay: Post-emergent herbicidal test, bean; assay type: in vivo; set-up: key: 1: no perceptible injury; 2: intermediate degrees of injury based upon the number and extent to which leaves were injured; 3: intermediate degrees of injury based upon the number and extent to which leaves were injured; 4: intermediate degrees of injury based upon the number and extent to which leaves were injured; 5: the plant was dead; details: 2500 parts per million, after ten days
Protocol: as §1, §2, §3

Perennial rye grass = assay: Preliminary herbicide seed germination test (pre-emergent), rye grass; assay type: in vivo, Solium perenne; set-up: key: 5: no seedling emerged; 4: few seedlings emerged and/or very severe stunting; 3: moderate reduction in stand and/or moderate stunting; 2: very slight reduction in stand and/or slight stunting; 1: no injury; seedlings appear no different with respect to stand or growth than untreated controls; details: ten to twelve days after application
Protocol: as §1, §4
Perennial rye grass--Solium perenne
as §5, §6, §3

Soybean = assay: Post-emergent herbicidal test, soybean; assay type: in vivo; set-up: key: 1: no perceptible injury; 2: intermediate degrees of injury based upon the number and extent to which leaves were injured; 3: intermediate degrees of injury based upon the number and extent to which leaves were injured; 4: intermediate degrees of injury based upon the number and extent to which leaves were injured; 5: the plant was dead; details: 2500 parts per million, after ten days
Protocol: as §1, §2, §3

[1] = tested on: egg of the two-spotted mite (Tetranychus urticae (Koch)); assay: Mite Ovicide Test (egg); assay type: in vivo; set-up: key to Miticidal, Egg (control rating): A: Excellent Control; B: Partial Control; No Control; details: for Miticidal, Egg (control rating): Table I, unhatched/hatched eggs four days after spraying; for LC50: Tetranychus urticae, Table II, read-out: Miticidal LD50, Egg (ppm required for a 50 percent kill of eggs)
Protocol: as §1
The test organism was the egg of the two-spotted mite (Tetranychus urticae (Koch)), as obtained from adults reared on Tendergreen bean plants under controlled conditions of 80°±5° F. and 50±5 percent relative humidity. Heavily infested leaves from a stock culture were placed on the primary leaves of two bean plants six to eight inches in height growing in a two-and-a-half inch clay pot. Females were allowed to oviposit for a period of 48 hours and then the leaves of the infested plants were dipped in a solution containing 800 parts of tetraethyl pyrophosphate per million parts of water in order to destroy the reproductory forms and thus prevent further egg laying. […] The plants were allowed to dry thoroughly. The test compounds were formulated by diluting the stock suspension with water to give a suspension containing varying amounts of test compound per million parts of final formulation. The potted plants (one pot per compound) were placed on a revolving turntable and sprayed with 100-110 milliliters of test compound formulation by use of a DeVilbis spray gun set at 40 spig. air pressure. This application which lasted 30 seconds, was sufficient to wet the plants to run-off. As a control, 100-110 milliliters of a water solution containing acetone and emulsifier in the same concentrations as the test compound formulation, but containing no test compound, were also sprayed on plants infested with eggs. The sprayed plants were held at 80°±5° F. and 50±5 percent relative humidity for four days, after which a microscopic examination was made of unhatched (dead) and hatched (living) eggs.
In these tests the pesticidal activity of the compounds against mites and mite eggs were rated as follows:
as §3

Cotton = assay: Post-emergent herbicidal test, cotton; assay type: in vivo; set-up: key: 1: no perceptible injury; 2: intermediate degrees of injury based upon the number and extent to which leaves were injured; 3: intermediate degrees of injury based upon the number and extent to which leaves were injured; 4: intermediate degrees of injury based upon the number and extent to which leaves were injured; 5: the plant was dead; details: 2500 parts per million, after ten days
Protocol: as §1, §2, §3

Corn = assay: Post-emergent herbicidal test, corn; assay type: in vivo; set-up: key: 1: no perceptible injury; 2: intermediate degrees of injury based upon the number and extent to which leaves were injured; 3: intermediate degrees of injury based upon the number and extent to which leaves were injured; 4: intermediate degrees of injury based upon the number and extent to which leaves were injured; 5: the plant was dead; details: 2500 parts per million, after ten days
Protocol: as §1, §2, §3

| SMILES | Post-Emergent Herbicidal, Tomato (injury rating) (Tomato; Table I) | Pre-emergent Herbicidal, Crabgrass (injury rating) (Crabgrass; Table I) | Post-Emergent Herbicidal, Bean (injury rating) (Bean; Table I) | Pre-emergent Herbicidal, Rye (injury rating) (Perennial rye grass; Table I) | Post-Emergent Herbicidal, Soybean (injury rating) (Soybean; Table I) | Miticidal, Egg (control rating) [1] | Post-Emergent Herbicidal, Cotton (injury rating) (Cotton; Table I) | Post-Emergent Herbicidal, Corn (injury rating) (Corn; Table I) | Post-Emergent Herbicidal, Tomato (injury rating) (Tomato; Table II) | Pre-emergent Herbicidal, Crabgrass (injury rating) (Crabgrass; Table II) | Post-Emergent Herbicidal, Bean (injury rating) (Bean; Table II) | Pre-emergent Herbicidal, Rye (injury rating) (Perennial rye grass; Table II) | Post-Emergent Herbicidal, Soybean (injury rating) (Soybean; Table II) | LC50 [1] | Post-Emergent Herbicidal, Cotton (injury rating) (Cotton; Table II) | Post-Emergent Herbicidal, Corn (injury rating) (Corn; Table II) |
| --- | --- | --- | --- | --- | --- | --- | --- | --- | --- | --- | --- | --- | --- | --- | --- | --- |
| Cc1ccc(C)c(C2C(=O)CCC2=O)c1 [CH3 H CH3 H H] | 1 | 2 | 2 | 4 | 3 | B | 2 | 2 |  |  |  |  |  |  |  |  |
| Cc1ccccc1C1C(=O)C2CCCCC2C1=O (stereo not drawn) [CH3 H H (CH2)4, 2-(2'-Methylphenyl)-4,5,6,7,8,9-hexahydro-1,3 indandione] | 1 | 3 | 2 | 5 | 1 | A | 3 | 2 | 1 | 3 | 2 | 5 | 1 | 22 µg/mL (≈ 90.8 µM) | 3 | 2 |
| Cc1ccccc1C1C(=O)CCC1=O [CH3 H H H H, 2-(2'-methylphenyl)-1,3-cyclopentanedione] | 2 | 2 | 3 | 5 | 1 | B | 3 | 3 | 2 | 2 | 3 | 5 | 1 | 500 µg/mL (≈ 2660 µM) | 3 | 3 |
| O=C1CCC(=O)C1c1ccc(Cl)cc1Cl [Cl Cl H H H, 2-(2',4'-Dichlorophenyl)-1,3-cyclopentanedione] | 1 | 1 | 1 | 1 | 1 | B | 2 | 1 |  |  |  |  |  |  |  |  |
